Experimental data: patent US9284307B2, “Macrocyclic serine protease inhibitors” (Idenix Pharmaceuticals LLC, priority 2009, dated 2016)

Legend:
HCV NS3-NS4A protease 3a = molecular target: T1, HCV NS3-NS4A protease 3a (Hepatitis C virus genotype 3a, UniProt Q81258); assay: HCV protease assay (HiLyte Fluor TR/QXL 610 FRET peptide), genotype 3a; format: biochemical; conditions: 2-3 nM protease, 60 min at 30° C., read-out: IC50 Against HS3/4A 3a
T1 construct: using 2-3 nM HCV NS3-NS4A protease, which was produced according to the method of Taremi et al; made in house
Description: (§1) Measurement of the inhibitory effect of compounds on HCV protease activity was performed using the HiLyte Fluor™ TR/QXL™ 610 FRET peptide from AnaSpec, Inc. (San Jose, Calif.) under conditions developed in-house using 2-3 nM HCV NS3-NS4A protease, which was produced according to the method of Taremi et al. (Protein Science, 1998, 7, 2143-2149). The compounds were tested at a variety of concentrations in assay buffer containing a final DMSO concentration of 5%. Reactions were allowed to proceed for 60 min at 30° C. and fluorescence measurements were recorded with a PerkinElmer Victor^3 V 1420 Multilabel Counter. The IC50 values were determined from the percent inhibition versus concentration data using a sigmoidal non-linear regression analysis based on four parameters with XLfit 4.1 software.

HCV NS3-NS4A protease 4a = molecular target: T2, HCV NS3-NS4A protease 4a (Hepatitis C virus genotype 4a, UniProt O39929); assay: HCV protease assay (HiLyte Fluor TR/QXL 610 FRET peptide), genotype 4a; format: biochemical; conditions: 2-3 nM protease, 60 min at 30° C., read-out: IC50 Against HS3/4A 4a
T2 construct: using 2-3 nM HCV NS3-NS4A protease, which was produced according to the method of Taremi et al; made in house
Description: as §1

[1] = test system: HCV luciferase-bearing mutant replicon, NS3 R155K, in cured GS4.1 cells; assay: Luciferase replicon transient transfection assay, R155K mutant replicon; format: cell-based
Description: (§2) The luciferase replicon transient transfection assay measures the ability of a test compound to inhibit the replication of a transiently-transfected HCV luciferase-bearing wild-type or mutant replicon in cured human hepatoma cells (cured GS4.1). The mutant replicons bear a specific single-site mutation in NS3 that is known to confer resistance to protease inhibitors currently in development. The inhibition of HCV replication was measured by quantification of luciferase protein expression. This assay has been validated using a panel of replicons bearing known protease inhibitor resistance mutations and their respective reference compounds. Briefly, subconfluent cured GS4.1 cells in OptiBuffer (ThermoElectron Corp.) were electroporated with 40 μg of wild-type or mutant luciferase-bearing HCV replicon RNA. The cells were then seeded in 96-well opaque white plates at 2.4×10^4 cells/well in 150 μL/well and incubated for 4 hours at 37° C./5% CO2. […] The plates were agitated on a rotating platform at room temperature for 3 minutes and read in a Victor^3V microplate reader (Perkin-Elmer) using a 700 nm cut-off filter with a 1 second read time. EC50 values were calculated from dose response curves from the resulting best-fit equations determined by Microsoft Excel and XLfit 4.1 software.

[2] = test system: HCV luciferase-bearing mutant replicon, NS3 D168V, in cured GS4.1 cells; assay: Luciferase replicon transient transfection assay, D168V mutant replicon; format: cell-based
Description: as §2

T2 sequence (O39929 1027-1208): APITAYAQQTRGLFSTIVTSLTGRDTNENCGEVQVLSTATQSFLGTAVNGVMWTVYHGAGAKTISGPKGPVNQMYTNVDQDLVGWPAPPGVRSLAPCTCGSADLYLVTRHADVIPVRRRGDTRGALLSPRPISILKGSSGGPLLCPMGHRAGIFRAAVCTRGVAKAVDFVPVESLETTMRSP
T1 sequence (Q81258 1033-1214): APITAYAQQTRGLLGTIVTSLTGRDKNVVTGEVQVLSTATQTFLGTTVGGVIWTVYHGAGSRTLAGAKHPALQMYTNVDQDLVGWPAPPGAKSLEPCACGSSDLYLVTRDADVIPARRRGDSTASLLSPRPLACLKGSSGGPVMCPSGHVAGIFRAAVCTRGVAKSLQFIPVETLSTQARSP

COc1ccc2c(O[C@H]3CC[C@H]4C(=O)N(C)CCCC/C=C\[C@@H]5C[C@@]5(C(=O)NS(=O)(=O)C5(C)CC5)NC(=O)[C@@H]4C3)cc(-c3nc(C(F)(F)F)cs3)nc2c1C [Compound 51]
IC50 (HCV NS3-NS4A protease 3a): < 1000 nM
IC50 (HCV NS3-NS4A protease 4a): < 1000 nM
Fold Change, R155K replicon ([1]; EC50 fold change, R155K replicon): 10-20
EC50 ([1]; Hepatitis C virus, 96 h, read-out: EC50(nm), R155K replicon): 5 to 15 nM
Fold Change, D168V replicon ([2]; EC50 fold change, D168V replicon): 1000-3000
EC50 ([2]; Hepatitis C virus, 96 h, read-out: EC50(nm), D168V replicon): 2000 to 2750 nM
